Test results published in article PMC12190436, “5-Ene-2-arylaminothiazol-4(5H)-ones Induce Apoptosis in Breast Cancer Cells” (Cells, 2025).
Structures can show the parent of a compound that is named as a salt.

Tests used:
Assay type in all cases: cell-based, human
MCF-7 cells [1] = test: Annexin V-FITC/propidium iodide flow cytometry; details: 24 h; for viability at 5 µM: MCF7, 5 µM
Description: The MCF-7 cells were seeded on 6-well plates (1 × 10^5 cells per well) and incubated for 24 h. Afterwards, the cells were washed, and tested compounds (Les-6416, Les-6418, Les-6381, Les-6423, and Les-6424) were added in a concentration of 5 µM. The reference drug doxorubicin hydrochloride was applied in a concentration of 0.5 µM. The cells were incubated with the compounds for 24 h. Afterwards, the cells were washed several times with cold PBS and the cell suspensions were prepared in the binding buffer from the kit at a concentration of 1 × 10^6 cells/mL. A total of 100 µL of suspension was collected from each sample and transferred to the tubes. After that, 5 µL of Annexin V-FITC and 5 µL of propidium iodide were added. After 15 min of incubation at room temperature in a dark environment, the content of the tubes was filled with binding buffer up to 500 µL and assessed by BD FACSCanto II flow cytometer (Becton Dickinson Biosciences, San Jose, CA, USA). A total of 1 × 10^4 events were measured for each sample. The results were investigated by applying FACSDiva software Version 6.1.3. (BD Biosciences Systems, San Jose, CA, USA).
To assess the effects of novel compounds on apoptosis, we utilized flow cytometry analysis with Annexin V-FITC and Propidium Iodide double staining. In this way, we could distinguish between different cell populations based on their state: unstained or alive cells, cells stained with propidium iodide or necrotic cells, cells only stained with FITC-labeled annexin V or early apoptotic cells, and cells stained with both annexin V and propidium iodide or late apoptotic cells.

MCF-7 cells [2] = test: JC-1 mitochondrial membrane potential, flow cytometry; details: 5 µM, 24 h, MCF-7, JC-1
Description: Lipophilic fluorochrome JC-1 (5,5′,6,6′-tetrachloro-1,1′,3,3′-tetraethylbenzimidazolcarbocyanine iodide) (BD Biosciences, San Diego, CA, USA) was applied to determine the novel structures’ effects on the MMP [35]. MCF-7 cells were seeded on 6-well plates at 5 × 10^6 cells per well, followed by incubation for 24 h. Afterwards, the cells were treated for 24 h with new 4-thiazolidinone derivatives (Les-6416, Les-6418, Les-6381, Les-6423, and Les-6424) in a concentration of 5 µM and the reference drug doxorubicin hydrochloride in a concentration of 0.5 µM. Then, cells were collected at a concentration of 1 × 10^6 cells/mL and washed two times with PBS. Next, 0.5 mL of the pre-prepared JC-1 working solution was added to each sample in accordance with the instructions of the manufacturer, followed by incubation at 37 °C for 15 min in a CO2 incubator. After that, an assay buffer was added to each sample to wash the cells several times. Afterwards, 0.5 mL from each sample was transferred to the tubes for immediate assessment using a BD FACSCanto II flow cytometer (Becton Dickinson Biosciences, San Jose, CA, USA). For each sample, 1 × 10^4 events were analyzed. The obtained results were investigated by applying FACSDiva software Version 6.1.3 (BD Biosciences Systems, San Jose, CA, USA).
A critical determinant of the induction of the intrinsic pathway of apoptosis is the decrease in mitochondrial membrane potential (ΔΨm). To investigate the effects of the novel 4-thiazolidinones on mitochondrial membrane potential, flow cytometry analysis of JC-1 dye was applied. JC-1 is a carbocyanine lipophilic cationic fluorochrome whose fluorescence depends on the MMP. Red fluorescence is emitted in viable cells with healthy mitochondria; however, apoptotic or necrotic cells with damaged mitochondria emit green fluorescence.

caspase 7 = test: FLICA caspase-3/7 activity, flow cytometry; details: 5 µM, 24 h, MCF-7
Description: To determine the effects of the novel compounds on the caspases-3/7, caspase-8, caspase-9, and caspase-10 activity, the FLICA Caspase-3/7 Assay Kit, FLICA Caspase-8 Assay Kit, FLICA Caspase-9 Assay Kit, and FLICA Caspase-10 Assay Kit were applied (ImmunoChemistry Technologies, Bloomington, MN, USA). MCF-7 cells were seeded on 6-well plates (1 × 10^5 cells per well) and incubated for 24 h. Afterwards, they were treated for 24 h with tested compounds (Les-6416, Les-6418, Les-6381, Les-6423, and Les-6424) in a concentration of 5 µM and the reference drug doxorubicin hydrochloride in a concentration of 0.5 µM. Next, cells were amassed and washed two times with cold PBS, followed by resuspension in an Apoptosis Wash Buffer to a final concentration of 5 × 10^5 cells/mL. Afterwards, 290 µL of the prepared cell suspensions were transferred into tubes, followed by the addition of 10 µL of FLICA solution, prepared immediately before use, to each sample and incubated for an hour at 37 °C. Next, cells were washed two times with 2 mL of Apoptosis Wash Buffer, provided in the kit, centrifuged, and resuspended in 300 µL of the buffer. Prepared samples were assessed by a BD FACSCanto II flow cytometer (Becton Dickinson Biosciences, San Jose, CA, USA). For each sample, 1 × 10^4 events were analyzed. The obtained results were investigated by applying FACSDiva software Version 6.1.3 (BD Biosciences Systems, San Jose, CA, USA).
To further investigate the effects of the newly synthesized compounds on the process of apoptosis we decided to measure their impact on various caspases as evidence of intrinsic (caspase 9) or extrinsic (caspase 8, 10) pathways of programmed cell death by applying flow cytometry analysis after 24 h treatment of MCF-7 breast cancer cells with novel 4-thiazolidinone derivatives and reference drug doxorubicin hydrochloride. […] With 41.28 ± 5.45%, 43.23 ± 2.85%, and 41.90 ± 6.89% of cells with activated caspase 8, 10, and 9, respectively, Les-6416 continued the trend of displaying the most significant effect on the three tested caspases. […]

[3] = Homo sapiens, read-out: Viable cells, cell population

Compound | Necrotic cells, cell population (MCF-7 cells [1]; 0.5 µM) [%] | viability at 0.5 µM (MCF-7 cells [1]; Homo sapiens, MCF7, 0.5 µM, read-out: Viable cells, cell population) [%] | Reduced ΔΨm, cell population (MCF-7 cells [2]) [%] | viability at 5 µM (MCF-7 cells [1]; [3]) [%] | cells with active caspase 7 (caspase 7) [%] | Early apoptotic cells, cell population (MCF-7 cells [1]; 5 µM) [%] | Late apoptotic cells, cell population (MCF-7 cells [1]; 5 µM) [%] | Necrotic cells, cell population (MCF-7 cells [1]; 5 µM) [%] | proapoptotic effect in comparison to the control (MCF-7 cells [1]; 5 µM)
COc1cccc2c1C(=O)c1c(O)c3c(c(O)c1C2=O)C[C@@](O)(C(=O)CO)C[C@@H]3O[C@H]1C[C@H](N)[C@H](O)[C@H](C)O1 [DOX, Doxorubicin hydrochloride, reference compound] | 27.23 ± 3.76 | 59.6 | – | – | – | – | – | – | –
COc1ccc(C=C2SC(Nc3cc(OC)c(OC)c(OC)c3)=NC2=O)cc1 [Les-6381, 5-(4-Methoxybenzylidene)-2-((3,4,5-trimethoxyphenyl)amino)thiazol-4(5H)-one] | – | – | 27.95 ± 1.43 | 49.6 | 15.05 ± 1.73 | – | – | – | –
COc1cc(NC2=NC(=O)C(=Cc3ccc4cc[nH]c4c3)S2)cc(OC)c1OC [Les-6416, 5-((1H-Indol-6-yl)methylene)-2-((3,4,5-trimethoxyphenyl)amino)thiazol-4(5H)-one] | – | – | 33.80 ± 0.85 | 39.8 | 47.90 ± 0.57 | 8.23 ± 2.56 | 45.63 ± 10.29 | 0.07 ± 0.06 | –
COc1cc(NC2=NC(=O)C(=Cc3c[nH]c4ccccc34)S2)cc(OC)c1OC [Les-6418, 5-((1H-Indol-3-yl)methylene)-2-((3,4,5-trimethoxyphenyl)amino)thiazol-4(5H)-one] | – | – | 22.35 ± 3.06 | 47.7 | 19.85 ± 0.07 | 7.55 ± 1.17 | 44.68 ± 8.18 | 0.13 ± 0.05 | –
COc1cc(NC2=NC(=O)C(=Cc3cccs3)S2)cc(OC)c1OC [Les-6423, 5-(Thiophen-2-ylmethylene)-2-((3,4,5-trimethoxyphenyl)amino)thiazol-4(5H)-one] | – | – | – | 90 | – | – | – | – | did not have any statistically significant results
